Series [1] in a line: Acute toxicity (LD50, up-and-down method). As to conditions: in vivo; iv, tail vein, ddN male mouse; * fumarate, ** oxalate. The method, then: LD50 was determined by a known up-and-down method using ddN male mouse. The test compound was dissolved in a physiological saline solution, and the resulting solution was administered into the mouse through the tail vein.
In series [2] the test system is anemic decerebrated rigidity. The experiment in a line: Effect on anemic decerebrated rigidity (rigidity relieving effect, EMG of forelimb M. triceps brachii). Type of series: in vivo, rat (Wister male rats). As to conditions: rat; for inhibition in vivo at 3 mg/kg: iv, 10 min, 3 mg/kg through the femoral vein, 10 minutes after administration, * fumarate, ** oxalate, read-out: Relieving Rate (suppression rate of EMG). The method, then:
The experiment was performed using specimen of anemic decerebrated rigidity produced in rats according to the method of Fukuda, H., Ito, T., Hashimoto, S., and Kudo, Y.; Japan, J., Pharmacol., 24, 810 (1974). Wister male rats (body weight: 270 to 350 g) were held on their backs and incised at their cervices under etherization. After the trachea and common carotid arteries were exposed, the trachea was cannulated and the bilateral common carotid arteries and esophagus were then double-[…] cut. Subsequently, its occipital bone was exposed through which a circular hole was bored to double-ligate the centrally extending basilar artery. As each rat started coming out of anesthetization, its front limbs became rigid. Measurement was conducted by recording electromyographic (EMG) response from the muscle of the forelimb (M. triceps brachii) of the rat in the rigid state. The EMG pulses were converted to accumulated values every 10 seconds and recorded as a histogram on a recorder. The effect of each test compound on the rigidity was evaluated in terms of the suppression rate. This rate was calculated first by determining the area (see FIG. 1) of a decreased EMG pulse part on the histrograpm upon passage of 10 minutes after administration of a physiological saline solution of each test compound (3 mg/kg) through the femoral vein and then in accordance with the following equation: Suppression rate (%)=(a/A)×100 wherein a means an EMG pulse area decreased as a result of the administration of the test compound; and A means an EMG pulse area observed when no test compound was administered (control).

The subject of series [3] is glutamic acid at neuromuscular junctions of crayfish (opener muscles of the first walking legs). The experiment in a line: Blocking effects on glutamic acid at neuromuscular junctions of crayfish (suppression of L-glutamic acid-induced depolarization). As to conditions: test compound 2×10^-4 M, 5-minute pretreatment; L-glutamic acid 10^-4 M; 200 µM. The method, then:
The method of Ishida et al., [(J. Physiol., 298, 301-319 (1980)] and that of Shinozaki et al. [Comp. Biochem. Physiol., 70c, 49-58 (1981)] were followed. The opener muscles of the first walking legs of crayfish were used as experimental materials. The neuromuscular sample was held in a bath in which a physiologicl solution [NaCl (195 mM), CaCl2 (18 mM, KCl (5.4 mM), tris-maleate buffer (pH 7.5, 10 mM), and glucose (11 mM)] for use with the cray fish was perfused at room temperature and at a constant flow rate. A glass micro-electrode filled with a 3M-KCl solution was inserted in a central part of the muscle fiber to intracellularly record the changes in the potential of the muscular cell membrane.
The blocking effect of each test compound on glutamic acid was evaluated in terms of the suppression rate to depolarization which was induced by bath-applying L-glutamic acid (10^-4 M) in a 5-minute pretreatment with a solution of the test compound (2×10^-4 M).

Where a name gives a salt, the structure may show the parent alone.

Consider `CCN(CC)CCC(NC(=O)c1ccc2ccccc2n1)c1ccccc1` (centres unmarked) [Compound 2, N-(3-diethylamino-1-phenylpropyl)quinaldinamide], for which the LD50 in series [1] amounted to 18.9 mg/kg. In series [2], the inhibition in vivo at 3 mg/kg is 24.6%.
For the compound `Cc1ccc(C(=O)C(C)CN2CCCCC2)cc1` (centres unmarked) [Control Compound 2, 2,4'-dimethyl-3-piperidinopropiophenone hydrochloride, reference compound], the inhibition in vivo at 3 mg/kg in series [2] came out at 4.8%.
Regarding `Cc1cccc(C(CCN2CCCCC2)NC(=O)c2ccc3ccccc3n2)c1` (centres unmarked) [Compound 8, N-[1-(3-methylphenyl)-3-piperidinopropyl]quinaldinamide], the 50% lethal dose (LD50) in series [1] was found to be 25.4 mg/kg. In series [2], the inhibition in vivo at 3 mg/kg is 11.7%.
`O=C(NC(CCN1CCCC1)c1ccccc1)c1ccc2ccccc2n1` (centres unmarked) [Compound 4, N-(1-phenyl-3-pyrrolidinopropyl)quinaldinamide] displayed an LD50 in series [1] of 17.2 mg/kg. For the same compound, in series [2], the inhibition in vivo at 3 mg/kg came out at 19.6%.
Turning to `O=C(NC(CCN1CCCCC1)c1ccccc1)c1ccc2ccccc2n1` (centres unmarked) [Compound 5, N-(1-phenyl-3-piperidinopropyl)quinaldinamide], in series [3], the “Glutamic Acid-Blocking Rate (suppression rate to depolarization)” value is reported as 66%. The same compound showed an LD50 in series [1] of 24.8 mg/kg. For the same compound, the inhibition in vivo at 3 mg/kg in series [2] is 18.8%.
`Cc1ccccc1C(CCN1CCCCC1)NC(=O)c1ccc2ccccc2n1` (centres unmarked) [Compound 7, N-[1-(2-methylphenyl)-3-piperidinopropyl]quinaldinamide] returned an LD50 in series [1] of 23.5 mg/kg. The inhibition in vivo at 3 mg/kg in series [2] stood at 11.2%.
On to `CCN(CC)CCNC(=O)c1ccc2ccccc2n1` [Control Compound 1, N-(2-diethylaminoethyl)quiinaldinamide fumarate, reference compound], for which the “Glutamic Acid-Blocking Rate (suppression rate to depolarization)” value in series [3] came to 30%. For the same compound, in series [2], the inhibition in vivo at 3 mg/kg worked out at 1.2%.
`CCN(CC)CCNC(=O)c1ccc2ccccc2n1` [N-(2-diethylaminoethyl)quinaldinamide, reference compound]: the “rigidity relieving effect (in words)” value in series [2] (in vivo) is reported as “very weak rigidity relieving effect”.
Regarding `O=C(NC(CCN1CCCCCC1)c1ccccc1)c1ccc2ccccc2n1` (centres unmarked) [Compound 6, N-[3-(perhydroazepin-1-yl)-1-phenylpropyl]quinaldinamide], the LD50 in series [1] is 15.2 mg/kg. In series [2], the inhibition in vivo at 3 mg/kg came out at 12.2%.

As usually defined, the LD50 is the dose expected to kill half of the subjects tested. Higher therefore signals lower toxicity.

The values above are taken from patent US4764617A, “Quinaldinamide derivatives” (Nippon Chemiphar Co., Ltd., priority 1986, dated 1988).
